According to ChEMBL document CHEMBL1143920, “Meclonazepam analogues as potential new antihelmintic agents” (Bioorg Med Chem Lett, 2008):
Values after ≈ are worked out from the molar mass of the structure shown.

Test system: Schistosoma mansoni
Assay: Anthelmintic activity against Schistosoma mansoni
Format: functional, organism-based

SMILES: CC1N=C(c2ccccc2Cl)c2c(/N=N/c3ccc(O)c(C(C)C)c3)cccc2NC1=O (centres undefined)
- IC50: 5.79 mg/L (≈ 13 µM)

SMILES: Cc1cc(C)c(O)c(/N=N/c2cccc3c2C(c2ccccc2Cl)=NC(C)C(=O)N3)c1 (centres undefined)
- IC50: > 10 mg/L

SMILES: CCc1cc(/N=N/c2cccc3c2C(c2ccccc2Cl)=NC(C)C(=O)N3)ccc1O (centres undefined)
- IC50: 5.79 mg/L (≈ 13.4 µM)

SMILES: CC1N=C(c2ccccc2Cl)c2cc(N)ccc2NC1=O (centres undefined)
- IC50: > 10 mg/L

SMILES: CC1N=C(c2ccccc2Cl)c2c(/N=N\c3ccc(O)c4ccccc34)cccc2NC1=O (centres undefined)
- IC50: 9.1 mg/L (≈ 20 µM)

SMILES: CC1N=C(c2ccccc2Cl)c2c(/N=N/c3c(Cl)cc(O)cc3Cl)cccc2NC1=O (centres undefined)
- IC50: 5.79 mg/L (≈ 12.2 µM)

SMILES: CC1N=C(c2ccccc2Cl)c2c(/N=N/c3c(F)cc(O)cc3F)cccc2NC1=O (centres undefined)
- IC50: 3.8 mg/L (≈ 8.62 µM)

SMILES: CC1NC(c2ccccc2Cl)c2cc([N+](=O)[O-])ccc2NC1=O (centres undefined)
- IC50: 1.3 mg/L (≈ 3.92 µM)

SMILES: CC1NC(c2ccccc2Cl)c2cc([N+](=O)[O-])ccc2NC1=S (centres undefined)
- IC50: 4.75 mg/L (≈ 13.7 µM)

SMILES: CC1N=C(c2ccccc2Cl)c2c(/N=N\c3c(O)ccc4ccccc34)cccc2NC1=O (centres undefined)
- IC50: > 10 mg/L

SMILES: CC1N=C(c2ccccc2Cl)c2c(/N=N/c3ccc(O)cc3)cccc2NC1=O (centres undefined)
- IC50: > 10 mg/L

SMILES: CC1N=C(c2ccccc2Cl)c2c(/N=N/c3ccc(O)cc3Br)cccc2NC1=O (centres undefined)
- IC50: 10 mg/L (≈ 20.7 µM)

SMILES: CC1N=C(c2ccccc2Cl)c2cc([N+](=O)[O-])ccc2NC1=S (centres undefined)
- IC50: 0.35 mg/L (≈ 1.01 µM)

SMILES: C[C@@H]1N=C(c2ccccc2Cl)c2cc([N+](=O)[O-])ccc2NC1=O [MECLONAZEPAM]
- IC50: 0.37 mg/L (≈ 1.12 µM)
